Source: US12702689B2, “Anti-inflammatory compositions, and uses thereof” (P.L. THOMAS & CO., INC., priority 2022, dated 2026)

What was measured:
[1] = Body weight change in OVA allergic airway model; assay type: in vivo, BALB/cJ female mice; settings: OVA+AKBA mice, 100 mg/kg AKBA by gavage, beginning to end of experiment; mean±SD
Text: Eight-week-old BALB/cJ female mice were purchased from the Jackson Laboratory (Bar Harbor, ME, US) and housed in plastic cages with corncob bedding at the University of Connecticut Health (Farmington, CT.). Animal rooms maintained a 12-h light/dark cycle and were pathogen free. Mice were fed a 18% protein rodent diet (18.6% protein, 6.2% fat, 44.2% carbohydrate, 3.5% soluble fiber, 14.7% total fiber, 5.3% ash) purchased from Envigo (Indianapolis, IN, US) and supplied autoclaved water. Allergic airway phenotype was induced by using an ovalbumin (OVA, hen egg) sensitization and challenge model as previously described with modifications [Beigelman, A. et al. Azithromycin attenuates airway inflammation in a noninfectious mouse model of allergic asthma. Chest 136, 498-506 (2009)]. Briefly (FIG. 1), two groups of mice (OVA control and OVA+AKBA) were sensitized with intraperitoneal ovalbumin plus alum on days 0 and 7, challenged for 3 days (day 14 to day 17) via nebulized OVA at 1% in PBS for 30 mins, and harvested 48 hr after final challenge. Supplementation groups (OVA+AKBA) were given 100 mg/kg of water soluble AKBA (pH 7) (PLT Health Solutions, Morristown, NJ, US) in autoclaved mouse water, via gavage, every other day for 10 days and then every day for the remainder of the experiment (9 days). OVA control and naïve mouse continued to receive normal autoclaved mouse water. […]

[2] = test system: ovalbumin-induced allergic airway inflammation (lung); experiment: Lung tissue histology and scoring in OVA allergic airway model; assay type: in vivo, BALB/cJ female mice; settings: OVA+AKBA mice, 100 mg/kg AKBA
Text: Allergic airway phenotype was induced by using an ovalbumin (OVA, hen egg) sensitization and challenge model as previously described with modifications [Beigelman, A. et al. Azithromycin attenuates airway inflammation in a noninfectious mouse model of allergic asthma. Chest 136, 498-506 (2009)]. Briefly (FIG. 1), two groups of mice (OVA control and OVA+AKBA) were sensitized with intraperitoneal ovalbumin plus alum on days 0 and 7, challenged for 3 days (day 14 to day 17) via nebulized OVA at 1% in PBS for 30 mins, and harvested 48 hr after final challenge. Supplementation groups (OVA+AKBA) were given 100 mg/kg of water soluble AKBA (pH 7) (PLT Health Solutions, Morristown, NJ, US) in autoclaved mouse water, via gavage, every other day for 10 days and then every day for the remainder of the experiment (9 days). OVA control and naïve mouse continued to receive normal autoclaved mouse water. Mice were weighted at the beginning and end of the experiment. Experiments involving AKBA were conducted twice, with the first group containing 5 mice per group and the second containing 15 mice per group (5 per group for naive). […]
Lung sectioning and staining was performed by the UConn Health Research Histology Core (Farmington, CT, US). […] Sections from the left lung were evaluated in their entirety and representative were images taken. […]

[3] = test system: gut microbiome (Bifidobacterium); settings: healthy mice; cited from earlier work

SMILES: CC(=O)O[C@@H]1CC[C@@]2(C)[C@@H](CC[C@]3(C)[C@@H]2C(=O)C=C2[C@@H]4[C@@H](C)[C@H](C)CC[C@]4(C)CC[C@]23C)[C@@]1(C)C(=O)O [AKBA, 3-O-acetyl-11-keto-b-boswellic acid]
- total average weight change, % of starting weight [1]: −2.32±4.19%
- histology score: inflammation and airway smooth muscle remodeling ([2]; score 0-3, blinded, p=0.1823 vs OVA control): 2.0±0.49
- histology score: mucus production ([2]; score 0-3, p=0.0278 vs OVA control): 2.0±0.4
- relative abundances of Bifidobacterium [3]: increases
